Laboratory results from article PMC9920986 (Molecules, 2023).
Like-named read-outs stand apart in the source and are kept apart here.

Legend:
[1] = Antiproliferative assay (MTT colorimetric test, 72 h); type: cell-based; details: human, n.a. = not active, read-out: A549, CC50
Description: The cytotoxicity of the synthesized oxindoles was studied using the A549 cell line in which the levels of NQO2 are increased (Table 4). […] The cytotoxicity of the compounds may be due to the inhibition of other enzymes associated with the activation of apoptosis in cancer cells, for example GSK3b or tyrosine kinases, or with the general non-specific toxicity of these compounds. Thus, the influence of NQO2 on A549 cell viability has not been established.
The A549 cells were maintained in F12-K (Gibco, Paisley, UK) supplemented with 10% fetal bovine serum (FBS, Gibco, UK), penicillin (100 UI mL^−1), streptomycin (100 µg mL^−1) and GlutaMax (2 mM, Gibco, UK). All cells line were cultured under a humidified atmosphere of 95% air/5% CO2 at 37 °C. Subconfluent monolayers, in the log growth phase, were harvested by a brief treatment with TrypLE Express solution (Gibco, UK) in phosphate-buffered saline (PBS, Capricorn Scientific, Ebsdorfergrund, Germany) and washed three times in serum-free PBS. The number of viable cells was determined by trypan blue exclusion.
The effects of the synthesized compounds on cell viability were determined using the MTT colorimetric test. All examined cells were diluted with the growth medium to 3.5 × 10^4 cells per mL and the aliquots (7 × 10^3 cells per 200 μL) were placed in individual wells in 96-multiplates (Eppendorf, Germany) and incubated for 24 h. […] After incubation, the cells were then treated with 40 μL MTT solution (3-(4,5-dimethylthiazol-2-yl)-2,5-diphenyltetrazolium bromide, 5 mg mL^−1 in PBS) and incubated for 4 h. After an additional 4 h incubation, the medium with MTT was removed and DMSO (150 μL) was added to dissolve the formazan crystals. The plates were shaken for 10 min. The optical density of each well was determined at 560 nm using a microplate reader GloMax Multi+ (Promega, Madison, WI, USA). Each of the tested compounds was evaluated for cytotoxicity in three separate experiments.

[2] = target: T1, human recombinant NRH:quinone oxidoreductase (NQO2) (Homo sapiens, UniProt P16083); assay: biochemical; details: for inhibition at 10 µM: read-out: NQO2 Inhibition, %
T1 construct: purchased Sigma Q0380
T1 sequence (P16083 1-231): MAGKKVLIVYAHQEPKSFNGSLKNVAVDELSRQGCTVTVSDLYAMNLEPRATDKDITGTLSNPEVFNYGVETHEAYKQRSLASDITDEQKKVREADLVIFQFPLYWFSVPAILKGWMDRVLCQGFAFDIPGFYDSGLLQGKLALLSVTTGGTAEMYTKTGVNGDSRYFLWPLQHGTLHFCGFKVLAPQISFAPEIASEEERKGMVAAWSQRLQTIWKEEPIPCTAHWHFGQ
Experimental: The inhibition activity of all synthesized compounds at a concentration of 10 µM was preliminarily tested in vitro using human recombinant NRH:quinone oxidoreductase (NQO2).
The activity of recombinant human NQO2 (Sigma #Q0380, St. Louis, […], USA) was evaluated kinetically using menadione and N-benzyl-dihydronicotinamide (BNAH) as the substrate and co-substrate, respectively. All reagents and test compounds were dissolved in 50 mM Hepes-KOH (pH 7.4) containing 1 mM of β-octyl-D-glucopyranoside, 0.1 mg/mL BSA and 1 μM FAD. […] The solutions of the test compounds were pre-incubated for 5 min with 50 μL of human recombinant NQO2 (final concentration 42 ng/mL). Then, 25 μL of menadione was introduced at a final concentration of 100 μM. The reaction was started with 25 μL of 100 μM BNAH. The fluorescence of the co-substrate BNAH was followed at wavelengths of 370/440 nm at 37 °C using an Infinite M200 Pro microplate reader (Tecan, Grödig, Austria). The fluorescence data was fit according to a one-phase decay nonlinear regression to obtain slope values with Prism 8.0 (GraphPad Inc., San Diego, CA, USA). The activity in sample wells were normalized against negative control and enzyme-blank samples.

[3] = recombinant human NQO2, 100 μM menadione, 100 μM BNAH, read-out: NQO2 IC50 ± SEM

SMILES	CC50 at 72 h [1] [µM]	IC50 [2] [µM]	IC50 [2, 3] [µM]	other results
COc1ccc(C(=O)CC2(O)C(=O)Nc3ccc(Br)cc32)cc1 (stereo not shown) [Compound 50, 3-hydroxy-5-bromo-3-[2-(4-methoxyphenyl)-2-oxoethyl]-2-oxindole]	474 ± 18.2			inhibition at 10 µM [2]: 78.8%
O=C1Nc2ccc(Br)cc2C1=Cc1ccco1 [Compound 35, 5-bromo-3-(2-furylmethylidene)-2-oxindole]	449 ± 18.7	> 50		
COc1cc(C=C2C(=O)Nc3ccc(NC(=O)c4ccco4)cc32)cc(OC)c1OC [Compound 25, 3-(3,4,5-trimethoxybenzylidene)-5-furoylamino-2-oxindole]	201 ± 22.7	0.66 ± 0.02		
CCOC(=O)c1[nH]ncc1C=C1C(=O)Nc2ccccc21 [Compound 39, 3-((5-ethoxycarbonyl-1H-pyrazol-4-yl)methylene)-2-oxindole]	231			
O=C1Nc2ccc([N+](=O)[O-])cc2C1=Cc1ccccn1 [Compound 4, 5-nitro-3-(2-pyridinylmethylidene)-2-oxindole]		> 50		
CN(C)c1ccc(C=C2C(=O)Nc3ccccc32)cc1 [Compound 30, (E,Z)-3-(4-Dimethylaminobenzylidene)-2-oxindole]		> 50		
O=C1Nc2ccc(Br)cc2C1=Cc1cccs1 [Compound 38, 5-bromo-3-(2-thienylmethylidene)-2-oxindole]	427 ± 6.2	> 50		
O=C1Nc2ccc(NC(=O)c3ccccc3)cc2C1=Cc1ccccn1 [Compound 6, (E,Z)-3-(2-Pyridinylmethylidene)-5-benzoylamino-2-oxindole]	17.4 ± 1.8			inhibition at 10 µM [2]: 43.1%
O=C1Nc2ccccc2C1=Cc1ccc(O)cc1 [Compound 14, 3-(4-hydroxybenzylidene)-2-oxindole]	80.9 ± 12.2	> 50		
CN1C(=O)C(=Cc2ccc(O)cc2)c2ccccc21 [Compound 15, 3-(4-hydroxybenzylidene)-N-methyl-2-oxindole]			0.62 ± 0.04	
COc1cc(C=C2C(=O)Nc3ccccc32)cc(OC)c1OC [Compound 23, (E,Z)-3-(3,4,5-Trimethoxybenzylidene)-2-oxindole]	25.7		1.6 ± 0.14	
COC(=O)Nc1ccc2c(c1)C(=Cc1ccc(O)cc1)C(=O)N2 [Compound 17, 3-(4-hydroxybenzylidene)-5-(methoxycarbonylamino)-2-oxindole]	44.43 ± 0.29		0.44 ± 0.02	
CCOC(=O)c1[nH]ncc1C=C1C(=O)Nc2ccc([N+](=O)[O-])cc21 [Compound 40, 3-((5-ethoxycarbonyl-1H-pyrazol-4-yl)methylene)-5-nitro-2-oxindole]		1.88 ± 0.08		
O=C1Nc2ccccc2C1=Cc1cccnc1 [Compound 7, 3-(3-pyridinylmethylidene)-2-oxindole]	67.5 ± 7.58			inhibition at 10 µM [2]: 59.2%
Cc1n[nH]c(C)c1C=C1C(=O)Nc2ccccc21 [Compound 42, 3-((3,5-dimethyl-1H-pyrazol-4-yl)methylene)-2-oxindole]				inhibition at 10 µM [2]: 54.4%
CN1C(=O)C(=Cc2ccccn2)c2ccccc21 [Compound 2, N-methyl-3-((pyridin-2-yl)methylene)-2-oxindole]		16.78 ± 0.09		
O=C1Nc2ccc(NC(=O)c3ccccc3)cc2C1=Cc1ccc([N+](=O)[O-])cc1 (mixture of isomers) [Compound 29, 5-benzoylamino-3-((4-nitrophenyl)methylene)-2-oxindole]		> 50		
CCOc1ccc(/C=C2/C(=O)Nc3ccccc32)cc1 [Compound 22, (E)-3-(4-Ethoxybenzylidene)-2-oxindole]			> 50	
Cc1n[nH]cc1C=C1C(=O)Nc2ccccc21 [Compound 43, 3-((3-methyl-1H-pyrazol-4-yl)methylene)-2-oxindole]	219	7.61 ± 0.19		

SMILES	CC50 at 72 h [1] [µM]	IC50 [2] [µM]	IC50 [2, 3] [µM]	other results
COc1ccc2c(c1)C(O)(CC(=O)c1ccc(C)cc1)C(=O)N2 (stereo not shown) [Compound 48, 3-hydroxy-5-methoxy-3-[2-(4-methylphenyl)-2-oxoethyl]-2-oxindole]			> 50	
CC(=O)Nc1ccc2c(c1)C(=Cc1ccc(O)cc1)C(=O)N2 [Compound 16, (E,Z)-3-(4-Hydroxybenzylidene)-5-acetamido-2-oxindole]			0.99 ± 0.03	
O=C1Nc2ccc(NC(=O)c3ccco3)cc2C1=Cc1ccc(O)cc1 [Compound 18, 3-(4-hydroxybenzylidene)-5-furoylamino-2-oxindole]	146 ± 11.3		0.37 ± 0.02	
O=C1Nc2ccccc2C1=Cc1ccncc1 [Compound 10, 3-(4-pyridinylmethylidene)-2-oxindole]	80.3 ± 9.87		> 50	
Cc1ccc(C(=O)CC2(O)C(=O)Nc3ccccc32)cc1 (stereo not shown) [Compound 52, 3-hydroxy-3-[2-(4-methylphenyl)-2-oxoethyl]-2-oxindole]	171 ± 13.4		> 50	
COC(=O)Nc1ccc2c(c1)C(=Cc1ccc(Br)cc1)C(=O)N2 [Compound 32, 3-(4-bromobenzylidene)-5-(methoxycarbonylamino)-2-oxindole]		0.61 ± 0.03		
O=C1Nc2ccc([N+](=O)[O-])cc2C1=Cc1ccco1 [Compound 36, 5-nitro-3-(2-furylmethylidene)-2-oxindole]	329 ± 17			inhibition at 10 µM [2]: 59.5%
Cc1ccc(C(=O)CC2(O)C(=O)Nc3ccc(NC(=O)c4ccco4)cc32)cc1 (stereo not shown) [Compound 51, 3-hydroxy-5-(2-furoylamino)-3-[2-(4-methylphenyl)-2-oxoethyl]-2-oxindole]		> 50		
O=C1Nc2ccc([N+](=O)[O-])cc2C1=Cc1ccncc1 [Compound 12, 5-nitro-3-(4-pyridinylmethylidene)-2-oxindole]			> 50	
Cc1ccc(C(=O)CC2(O)C(=O)Nc3ccc(Br)cc32)cc1 (stereo not shown) [Compound 49, 3-hydroxy-5-bromo-3-[2-(4-methylphenyl)-2-oxoethyl]-2-oxindole]			> 50	
COc1cc(C=C2C(=O)Nc3ccc(NC(=O)c4ccccc4)cc32)cc(OC)c1O [Compound 26, (E,Z)-3-(3,5-Dimethoxy-4-hydroxybenzylidene)-5-benzoylamino-2-oxindole]				inhibition at 10 µM [2]: 40.5%
Nc1ccc(CC2C(=O)Nc3ccccc32)cc1 (stereo not shown) [Compound 46, 3-(4-aminobenzyl)-2-oxindole]		> 50		
Cc1nn(-c2ccccc2)c(C)c1C=C1C(=O)Nc2ccccc21 [Compound 44, 3-((3,5-dimethyl-1-phenyl-1H-pyrazol-4-yl)methylene)-2-oxindole]				inhibition at 10 µM [2]: 43.6%
O=C1Nc2ccccc2C1=Cc1ccc([N+](=O)[O-])cc1 [Compound 27, 3-((4-nitrophenyl)methylene)-2-oxindole]		> 50		
COC(=O)CCn1cc(C=C2C(=O)Nc3ccccc32)cn1 [Compound 45, (E,Z)-3-(1-[2-(Methoxycarbonyl)ethyl]-1H-pyrazol-4-ylmethylidene)-2-oxindole]		> 50		
COC(=O)Nc1ccc2c(c1)C(=Cc1ccc([N+](=O)[O-])cc1)C(=O)N2 [Compound 28, 3-(4-nitrobenzylidene)-5-(methoxycarbonylamino)-2-oxindole]				inhibition at 10 µM [2]: 74%
Nc1ccc2c(c1)C(Cc1ccccn1)C(=O)N2 (stereo not shown) [Compound 47, 3-(pyridin-2-ylmethyl)-5-amino-2-oxindole]			> 50	
O=c1c(O)c(-c2ccc(O)c(O)c2)oc2cc(O)cc(O)c12 [Quercetin, reference compound]			0.08 ± 0.02	
Cn1cc(C=C2C(=O)Nc3ccccc32)cn1 [Compound 41, 3-((1-methyl-1H-pyrazol-4-yl)methylene)-2-oxindole]		9.4 ± 0.12		
